Test results published in patent US6225307A, “Viral treatment” (priority 2000, dated 2001).

System: HIV-1 cell line, CEMRF
Assay: Long term in vitro study, CEMRF cells, reverse transcriptase analysis
Format: cell-based
Parameters: Reverse transcriptase data: unit not given here
Description: A microtiter-based reveres transcriptase (RT) reaction is utilized (Buckheit et al (1991) AIDS Research and Human Retroviruses 7:295-302). Tritiated thymidine triphosphate (NEN)(TTP) is resuspended in distilled water at 5 Ci/ml. Poly rA and oligo dT are prepared as a stock solution which is kept at -20° C. The RT reaction buffer is prepared fresh on a daily basis and consists of 125 μl 1M EGTA, 125 μl water, 125 μl Triton X-100, 50 μl Tris (pH 7.4), 50 μl MDDT, and 40 μl 1M MgCl2. These three solutions are mixed together in a ratio of 1 part TTP, 2.5 parts poly rA:oligo dT, 2.5 parts reaction buffer and 4 parts distilled water. Ten microliters of this reaction mixture is placed in a round bottom microtiter place and 15 μl of virus containing supernatant is added and mixed. The plate is incubated at 37° C. and incubated for 60 minutes. Following reaction, the reaction volume is spotted onto filter mats, washed 6 times for 5 minutes each in a 5% sodium phosphate buffer, 2 times for 1 minute each in distilled water, 2 times for 1 minute each in 70% ethanol, and then dried. The dried filter mat is placed in a plastic sample bag, Betaplate scintillation fluid is added and the bag is heat sealed. Incorporated radioactivity is quantified utilizing a Wallac Microbeta scintillation counter.
Acute infection of most established human cell lines with HIV- I results in the eventual establishment of a constitutive virus-producing chronically infected cell line. The cells can be passaged for long periods of time in culture without loss of virus production. These cells may be utilized to evaluate the effects of anti-HIV compounds on syncytium formation or to evaluate the effects of anti-HIV compounds on levels of virus production from these cells. […] Each of the cells contains an integrated HIV genome or provirus. Chronically infected CEM, H9 and U937 cell lines have been prepared and cultured by Southern Research Institute, Frederick Md. and are available from them.
CEM-SS cells chronically infected with HIV isolate, for example SKI (CEM-SKI) are cultured in RPM1640 tissue culture medium supplemented with 10% fetal bovine serum and antibiotics. Selection is performed by culturing the cells in the presence of the compound to be tested in T25 flasks. CEM-SKI or other infected cells with no added drug are used as the control cells. Cells are allowed to grow to a density of approximately 1×10^6 cells/ml and are then passaged at a 1:10 dilution. After a period of time, usually one week intervals of drug treatment, cells are evaluated to determine if the inhibitory activity of the compound has been affected by treatment of the cells with either compounds. The drug concentration in the flask is then increased two-fold and the cells maintained as above.
The cell populations contain integrated copies of the HIV genome and constitutively produce HIV at relatively high levels or are latently infected and only produce virus after stimulation with phorbol esters, tumor necrosis factor or IL6(U1 and ACH2). Reductions in virus products were observed when quantifying supernatant reverse transcriptase activity,
Toxicity Values are measured by XTT and activity of the compound in the tests is measured by a Reverse Transcriptase analysis.
A long term in vitro study of 3-hexahydro-3-ethyl-1-methyl-2-oxo-1H-azepin-3-yl)phenyl ester of 4-chlorophenyl carbamic acid against an HIV-1 cell line, CEMRF, was conducted at three different levels. The results with CEMRF cells were reported at weekly intervals. CEMRF is a chronic HIV cell line.

CCC1(c2cccc(OC(=O)Nc3ccc(Cl)cc3)c2)CCCCN(C)C1=O (stereo not shown) [(4-chlorophenyl)-carbamic acid, 3-(hexahydro-3-ethyl-1-methyl-2-oxo-1H-azepin-3-yl) 2 phenyl ester]
Reverse transcriptase data (7 μg/ml, Day 4): 1942
Reverse transcriptase data (7 μg/ml, Day 11): 1537
Reverse transcriptase data (7 μg/ml, Day 18): 1683
Reverse transcriptase data (7 μg/ml, Day 25): 1624
Reverse transcriptase data (7 μg/ml, Day 32): 1286
Reverse transcriptase data (7 μg/ml, Day 39): 1368
Reverse transcriptase data (7 μg/ml, Day 46): 1588
Reverse transcriptase data (7 μg/ml, Day 53): 1482
Reverse transcriptase data (7 μg/ml, Day 60): 1381
Reverse transcriptase data (7 μg/ml, Day 67): 1231
Reverse transcriptase data (7 μg/ml, Day 71): 1321
Reverse transcriptase data (7 μg/ml, Day 74): 1528
Reverse transcriptase data (7 μg/ml, Day 88): 1454
Reverse transcriptase data (7 μg/ml, Day 95): 1168
Reverse transcriptase data (7 μg/ml, Day 102): 1463
Reverse transcriptase data (7 μg/ml, Day 109): 1440
Reverse transcriptase data (15 μg/ml, Day 4): 1402
Reverse transcriptase data (15 μg/ml, Day 11): 1402
Reverse transcriptase data (15 μg/ml, Day 18): 1281
Reverse transcriptase data (15 μg/ml, Day 25): 1582
Reverse transcriptase data (15 μg/ml, Day 32): 1140
Reverse transcriptase data (15 μg/ml, Day 39): 1028
Reverse transcriptase data (15 μg/ml, Day 46): 1056
Reverse transcriptase data (15 μg/ml, Day 53): 1160
Reverse transcriptase data (15 μg/ml, Day 60): 1056
Reverse transcriptase data (15 μg/ml, Day 67): 1002
Reverse transcriptase data (15 μg/ml, Day 71): 1108
Reverse transcriptase data (15 μg/ml, Day 74): 1201
Reverse transcriptase data (15 μg/ml, Day 88): 1068
Reverse transcriptase data (15 μg/ml, Day 95): 1004
Reverse transcriptase data (15 μg/ml, Day 102): 1165
Reverse transcriptase data (15 μg/ml, Day 109): 1265
Reverse transcriptase data (30 μg/ml, Day 4): 650
Reverse transcriptase data (30 μg/ml, Day 11): 463
Reverse transcriptase data (30 μg/ml, Day 18): 221
Reverse transcriptase data (30 μg/ml, Day 25): 643
Reverse transcriptase data (30 μg/ml, Day 32): 462
Reverse transcriptase data (30 μg/ml, Day 39): 221
Reverse transcriptase data (30 μg/ml, Day 46): 149
Reverse transcriptase data (30 μg/ml, Day 53): 281
Reverse transcriptase data (30 μg/ml, Day 60): 248
Reverse transcriptase data (30 μg/ml, Day 67): 147
Reverse transcriptase data (30 μg/ml, Day 71): 201
Reverse transcriptase data (30 μg/ml, Day 74): 161
Reverse transcriptase data (30 μg/ml, Day 88): 249
Reverse transcriptase data (30 μg/ml, Day 95): 176
Reverse transcriptase data (30 μg/ml, Day 102): 197
Reverse transcriptase data (30 μg/ml, Day 109): 370
Reverse transcriptase data, continued test (run through 222 days): data remained consistent
